Laboratory results: US20260216294A1, “BETA 2-ADRENERGIC RECEPTOR AGONISTS FOR TREATMENT OR PREVENTION OF MUSCLE WASTING” (ATROGI AB, priority 2023, published 2026)

What was measured:
[1] = tested on: L6-myotubes; experiment: Measurement of intracellular cAMP levels in differentiated L6-myotubes (Biological Example 3); format: cell-based; conditions: for Emax at 10 µM: 0.25 h
Outline: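 Serum-starved differentiated L6 myotubes stimulated 15 min with test compound at 1×10^−5 M final (isoprenaline as reference) in HBSS with 1% BSA, 5 mM HEPES, 1 mM IBMX, pH 7.4. Cells EtOH-extracted, lysed, and intracellular cAMP measured by AlphaScreen.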

[2] = tested on: L6-myotubes; experiment: Glucose uptake in differentiated L6-myotubes (Biological Example 2); format: cell-based; conditions: read-out: Biological example 2 (GU)
Outline: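 Differentiated L6 myotubes were serum-starved overnight in 0.5% fatty-acid-free BSA and then stimulated with compound or isoprenaline at 1×10^−5 M final. After 1 h 40 min cells were washed and re-dosed in glucose-free medium. Twenty minutes later, uptake of 50 nM ^3H-2-deoxyglucose over 10 min was measured by scintillation counting of NaOH lysates.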

[3] = intracellular cAMP in differentiated L6-myotubes, compound at 10 μM, activity relative to isoproterenol at 10 μM
[4] = glucose uptake in differentiated L6-myotubes, compound at 10 μM, activity relative to isoproterenol at 10 μM
[5] = intracellular cAMP, compound at 10 μM relative to isoproterenol at 10 μM
[6] = glucose uptake, compound at 10 μM relative to isoproterenol at 10 μM

Compound	Emax at 10 µM [1, 3] [%]	Emax at 10 µM [2, 4] [%]	Emax at 10 µM [1, 5] [%]	Emax at 10 µM [2, 6] [%]	Biological example 3 (CAMP) [1, 3]
CS(=O)(=O)Nc1ccc(CC23CCC([C@@H](O)c4cccc(F)c4)(CC2)N3)cc1 [Compound 474, (S)-(m-fluorophenyl)(4-{[p-(mesylamino)phenyl]methyl}-7-azabicyclo[[2.2.1]]hept-1-yl)methanol]	< 25	50 to 75	–	–	–
CN([C@H]1CC[C@@H](CC(C)(C)NC[C@H](O)c2cccc(F)c2)CC1)S(C)(=O)=O [Compound 498, (R)-2-{1,1-dimethyl-2-[(1s,4S)-4-(N-mesyl-N-methylamino)cyclohexyl]ethylamino}-1-(m-fluorophenyl)-1-ethanol]	< 25	25 to 50	–	–	–
O[C@H](c1cncc(F)c1)C12CCC(COCc3ccc(F)cc3)(CC1)N2 [Compound 443, (R)-(4-{[(p-fluorophenyl)methoxy]methyl}-7-azabicyclo[[2.2.1]]hept-1-yl)(5-fluoro-3-pyridyl)methanol]	25 to 50	> 75	–	–	–
CCC[C@@H](C)NC[C@H](O)c1ccc(O)cc1 [Compound 27, (R)-2-[(R)-1-methylbutylamino]-1-(p-hydroxyphenyl)-1-ethanol]	–	–	25 to 50	> 75	–
COc1ccc(C[C@H]2CC[C@H]([C@H](O)c3cncc(F)c3)N2)cc1 [Compound 379, (R)-{(2R,5R)-5-[(p-methoxyphenyl)methyl]-2-pyrrolidinyl}(5-fluoro-3-pyridyl)methanol]	< 25	> 75	–	–	–
CCC[C@@H]1CCC[C@H]([C@@H](O)c2cccc(F)c2)N1 [Compound 60]	–	–	< 25	25 to 50	–
O[C@@H](CNC1(C(F)(F)F)CC1)c1cccc(F)c1 [Compound 118, (R)-1-(m-fluorophenyl)-2-[1-(trifluoromethyl)cyclopropylamino]-1-ethanol]	–	–	< 25	50 to 75	–
CC(C)(C[C@H]1CC[C@@H](NC(=O)C(C)(C)C)CC1)NC[C@H](O)c1cncc(F)c1 [Compound 455]	< 25	50 to 75	–	–	–
CC1(C)CC[C@H]([C@@H](O)c2cncc(F)c2)N1 [Compound 156]	–	–	< 25	< 25	–
O[C@@H](CNCCC[C@H]1CC[C@@H](O)CC1)c1cncc(F)c1 [Compound 304, (R)-1-(5-fluoro-3-pyridyl)-2-{3-[(1s,4R)-4-hydroxycyclohexyl]propylamino}-1-ethanol]	< 25	50 to 75	–	–	–
O[C@@H](c1cccc(F)c1)C12CCC(COc3ccc(Cl)cc3)(CC1)N2 [Compound 440]	< 25	> 75	–	–	–
CCC[C@@H]1CCCC[C@H]([C@H](O)c2cncc(F)c2)N1 [Compound 219, (R)-[(2R,7R)-7-propyl-2-azepanyl](5-fluoro-3-pyridyl)methanol]	< 25	< 25	–	–	–
CC(C)(C)NC[C@H](O)c1cccc(N)c1F [Compound 91, (R)-1-(3-amino-2-fluorophenyl)-2-(tert-butylamino)-1-ethanol]	–	–	25 to 50	> 75	–
CC1(C)C[C@@H]([C@@H](O)c2ccccc2F)N1 [Compound 205, (S)-[(S)-4,4-dimethyl-2-azetidinyl](o-fluorophenyl)methanol]	< 25	25 to 50	–	–	–
CCS(=O)(=O)N[C@H]1CC[C@H](CC(C)(C)NC[C@H](O)c2cncc(F)c2)CC1 [Compound 525, (R)-2-{1,1-dimethyl-2-[(1r,4R)-4-(ethylsulfonylamino)cyclohexyl]ethylamino}-1-(5-fluoro-3-pyridyl)-1-ethanol]	< 25	50 to 75	–	–	–
CCCCNCC(O)c1ccc(O)c(Cl)c1 (stereo not drawn) [Compound 20, 2-(butylamino)-1-(3-chloro-4-hydroxyphenyl)-1-ethanol]	–	–	< 25	25 to 50	–
Cc1ncccc1[C@@H](O)CNC(C)(C)C[C@H]1CC[C@H](NS(C)(=O)=O)CC1 [Compound 435, (R)-2-{1,1-dimethyl-2-[(1r,4R)-4-(mesylamino)cyclohexyl]ethylamino}-1-(2-methyl-3-pyridyl)-1-ethanol]	< 25	25 to 50	–	–	–
O[C@H](c1cccc(F)c1)[C@H]1CCC2(CC2)N1 [Compound 170, (R)-{(R)-4-aza-5-spiro[2.4]heptyl}(m-fluorophenyl)methanol]	–	–	< 25	50 to 75	–
O[C@@H](CNC[C@H]1CC[C@H](O)CC1)c1cncc(F)c1 [Compound 274, (R)-1-(5-fluoro-3-pyridyl)-2-({[(1r,4R)-4-hydroxycyclohexyl]methyl}amino)-1-ethanol]	< 25	< 25	–	–	–
CC1(C)C[C@@H]([C@@H](O)c2cncc(F)c2)N1 [Compound 215]	< 25	25 to 50	–	–	–

Compound	Emax at 10 µM [1, 3] [%]	Emax at 10 µM [2, 4] [%]	Emax at 10 µM [1, 5] [%]	Emax at 10 µM [2, 6] [%]	Biological example 3 (CAMP) [1, 3]
CC1(C)C[C@H]([C@H](O)c2cccc(F)c2)N1 [Compound 198, (R)-[(R)-4,4-dimethyl-2-azetidinyl](m-fluorophenyl)methanol]	< 25	> 75	–	–	–
O[C@@H](c1cccc(F)c1)C12CCC(CCc3ccc(Cl)cc3)(CC1)N2 [Compound 527, (S)-{4-[2-(p-chlorophenyl)ethyl]-7-azabicyclo[[2.2.1]]hept-1-yl}(m-fluorophenyl)methanol]	< 25	< 25	–	–	–
CO[C@H]1CC[C@@H](CC(C)(C)NC[C@H](O)c2cccc(F)c2)CC1 [Compound 247, (R)-2-{1,1-dimethyl-2-[(1s,4S)-4-methoxycyclohexyl]ethylamino}-1-(m-fluorophenyl)-1-ethanol]	< 25	> 75	–	–	–
O[C@@H](c1cccc(F)c1)C12CCC(COCc3ccc(F)cc3)(CC1)N2 [Compound 438, (S)-(m-fluorophenyl)(4-{[(p-fluorophenyl)methoxy]methyl}-7-azabicyclo[[2.2.1]]hept-1-yl)methanol]	< 25	< 25	–	–	–
CC(=O)N[C@H]1CC[C@@H](CC(C)(C)NC[C@H](O)c2cccnc2C)CC1 [Compound 436]	< 25	50 to 75	–	–	–
CC1(C)CC[C@H]([C@H](O)c2ccccc2Cl)N1 [Compound 152, (R)-[(R)-5,5-dimethyl-2-pyrrolidinyl](o-chlorophenyl)methanol]	–	–	< 25	> 75	–
CC(C)(C)NC[C@H](O)c1ccncc1F [Compound 108, (R)-2-(tert-butylamino)-1-(3-fluoro-4-pyridyl)-1-ethanol]	–	–	< 25	25 to 50	–
CC1(C)CCC[C@H]([C@H](O)c2ccccc2Cl)N1 [Compound 162, (R)-[(R)-6,6-dimethyl-2-piperidyl](o-chlorophenyl)methanol]	–	–	< 25	25 to 50	–
O[C@@H](c1cccc(F)c1)C12CCC(CCc3cccnc3)(CC1)N2 [Compound 445, (S)-(m-fluorophenyl){4-[2-(3-pyridyl)ethyl]-7-azabicyclo[[2.2.1]]hept-1-yl}methanol]	–	> 75	–	–	− (if it less than 25% it is denoted with −)
CC(C)(C[C@H]1CC[C@@H](C#N)CC1)NC[C@H](O)c1cccc(F)c1 [Compound 399, (1S,4s)-4-{2-[(R)-2-(m-fluorophenyl)-2-hydroxyethylamino]-2-methylpropyl} cyclohexanecarbonitrile]	25 to 50	> 75	–	–	–
CC1(C)CCC[C@H]([C@H](O)c2cccc(O)c2)N1 [Compound 104, (R)-[(R)-6,6-dimethyl-2-piperidyl](m-hydroxyphenyl)methanol]	–	–	< 25	25 to 50	–
CCCCNCC(O)c1cc(Cl)c(O)c(Cl)c1 (stereo not drawn) [Compound 23, 2-(butylamino)-1-(3,5-dichloro-4-hydroxyphenyl)-1-ethanol]	–	–	< 25	< 25	–
Oc1ccc(C(O)CNCCCC2CCCCC2)cc1 (stereo not drawn) [Compound 21, 2-(3-cyclohexylpropylamino)-1-(p-hydroxyphenyl)-1-ethanol]	–	–	< 25	> 75	–
CC(=O)N(C)[C@H]1CC[C@H](CC(C)(C)NC[C@H](O)c2cncc(F)c2)CC1 [Compound 506]	25 to 50	> 75	–	–	–
COc1ccc(CCC23CCC([C@H](O)c4cncc(F)c4)(CC2)N3)cc1 [Compound 542, (R)-(5-fluoro-3-pyridyl){4-[2-(p-methoxyphenyl)ethyl]-7-azabicyclo[[2.2.1]]hept-1-yl}methanol]	25 to 50	50 to 75	–	–	–
CC(C)(C)NC[C@H](O)c1cccc(C#N)n1 [Compound 387, 6-[(S)-2-(tert-butylamino)-1-hydroxyethyl]-2-pyridinecarbonitrile]	25 to 50	> 75	–	–	–
CC(=O)N[C@H]1CC[C@H](CC(C)(C)NC[C@H](O)c2cncc(F)c2)CC1 [Compound 357]	< 25	> 75	–	–	–
CC1(C)CC[C@@H]([C@H](O)c2cccc(O)c2)N1 [Compound 142, m-{(R)-[(S)-5,5-dimethyl-2-pyrrolidinyl] hydroxymethyl}phenol]	–	–	< 25	25 to 50	–
Cc1ncccc1[C@@H](O)CNC(C)(C)C[C@H]1CC[C@@H](NS(C)(=O)=O)CC1 [Compound 437, (R)-2-{1,1-dimethyl-2-[(1s,4S)-4-(mesylamino)cyclohexyl]ethylamino}-1-(2-methyl-3-pyridyl)-1-ethanol]	< 25	25 to 50	–	–	–
